From PMC10060162, “Structural basis of mitochondrial membrane bending by the I–II–III2–IV2 supercomplex” (Nature, 2023)
One block for each compound: values may come before it.

Assays:
[1] = biological target: complex III monomer (cytochrome bc1) of Tetrahymena thermophila (Tetrahymena thermophila); assay: cryo-EM structure; single-particle cryo-EM of the native supercomplex co-purified from T. thermophila mitochondria; buffer D (25 mM HEPES-KOH pH 7.5, 25 mM KCl, 5 mM MgCl2, 0.1% w/v digitonin); 2.9 Å overall, masked refinements 2.6-3.0 Å
[2] = biological target: T1, NDUTT3 (Tetrahymena thermophila, UniProt I7LUQ4); assay: cryo-EM structure; assay type: binding; conditions: co-purified native ligand
T1 construct: gene TTHERM_00268000; native matrix-arm subunit of complex I within supercomplex, digitonin
T1 sequence (I7LUQ4 1-311): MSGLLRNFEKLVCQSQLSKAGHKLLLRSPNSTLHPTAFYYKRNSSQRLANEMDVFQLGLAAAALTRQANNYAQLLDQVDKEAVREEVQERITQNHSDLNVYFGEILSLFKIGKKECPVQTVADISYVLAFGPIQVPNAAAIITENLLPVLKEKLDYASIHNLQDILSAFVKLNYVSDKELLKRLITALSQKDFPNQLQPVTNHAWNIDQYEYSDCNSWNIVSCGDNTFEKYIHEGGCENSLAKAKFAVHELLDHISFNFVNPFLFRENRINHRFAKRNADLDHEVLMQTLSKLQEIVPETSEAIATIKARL

[3] = biological target: T2, SDHA (CII) (Tetrahymena thermophila, UniProt Q23DI3); assay: cryo-EM structure; assay type: binding; conditions: covalent
T2 construct: gene TTHERM_00047080; native complex II in I-II-III2-IV2 supercomplex from mitochondria, digitonin; with Succinate dehydrogenase [ubiquinone] iron-sulfur subunit, mitochondrial; Succinate dehydrogenase membrane anchor subunit SDHC; Succinate dehydrogenase membrane anchor subunit SDHD (mitochondria-encoded)
T2 sequence (Q23DI3 1-636): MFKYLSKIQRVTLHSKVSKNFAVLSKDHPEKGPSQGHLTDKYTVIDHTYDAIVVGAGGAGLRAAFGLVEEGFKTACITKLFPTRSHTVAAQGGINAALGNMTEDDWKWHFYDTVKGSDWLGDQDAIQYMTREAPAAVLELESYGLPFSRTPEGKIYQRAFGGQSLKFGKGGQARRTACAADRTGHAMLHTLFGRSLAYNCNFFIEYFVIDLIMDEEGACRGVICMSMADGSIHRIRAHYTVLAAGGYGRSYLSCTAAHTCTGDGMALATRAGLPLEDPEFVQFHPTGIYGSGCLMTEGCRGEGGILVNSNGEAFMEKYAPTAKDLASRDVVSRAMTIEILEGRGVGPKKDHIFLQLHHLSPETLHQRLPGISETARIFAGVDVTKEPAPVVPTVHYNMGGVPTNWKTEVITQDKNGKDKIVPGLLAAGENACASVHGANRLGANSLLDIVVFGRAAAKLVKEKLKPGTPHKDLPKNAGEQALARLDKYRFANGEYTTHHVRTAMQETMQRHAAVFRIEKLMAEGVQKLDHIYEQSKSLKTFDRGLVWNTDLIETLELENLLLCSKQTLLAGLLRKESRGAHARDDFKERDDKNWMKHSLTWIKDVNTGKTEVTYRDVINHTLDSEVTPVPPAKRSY

[4] = biological target: T3, NDUFA9 (Tetrahymena thermophila, UniProt I7MLH2); assay: cryo-EM structure; assay type: binding; conditions: co-purified; close to the CI Q-tunnel
T3 construct: gene TTHERM_00557760; native subunit of complex I within supercomplex, digitonin
T3 sequence (I7MLH2 27-362): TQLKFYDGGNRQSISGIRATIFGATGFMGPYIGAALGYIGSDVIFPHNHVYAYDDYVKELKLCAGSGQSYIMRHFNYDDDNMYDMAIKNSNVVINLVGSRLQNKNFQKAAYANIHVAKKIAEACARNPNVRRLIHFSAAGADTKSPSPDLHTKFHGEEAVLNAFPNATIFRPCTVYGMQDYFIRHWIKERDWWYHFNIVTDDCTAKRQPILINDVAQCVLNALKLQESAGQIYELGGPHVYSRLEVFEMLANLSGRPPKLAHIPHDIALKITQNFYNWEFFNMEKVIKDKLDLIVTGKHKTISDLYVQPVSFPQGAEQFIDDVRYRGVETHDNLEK

[5] = biological target: complex IV monomer (cytochrome c oxidase) of Tetrahymena thermophila (Tetrahymena thermophila) (UniProt Q950Y7); assay: cryo-EM structure; single-particle cryo-EM of the native supercomplex co-purified from T. thermophila mitochondria; buffer D (25 mM HEPES-KOH pH 7.5, 25 mM KCl, 5 mM MgCl2, 0.1% w/v digitonin); 2.9 Å overall, masked refinements 2.6-3.0 Å
[6] = biological target: T4, COB (CIII2) (Tetrahymena thermophila, UniProt Q950Z1); assay: cryo-EM structure; assay type: binding; conditions: co-purified; Qi site near haem bH (or semiquinone); second site between the two haem bL
T4 construct: native; mitochondria-encoded subunit in complex III dimer within supercomplex, digitonin
T4 sequence (Q950Z1 1-426): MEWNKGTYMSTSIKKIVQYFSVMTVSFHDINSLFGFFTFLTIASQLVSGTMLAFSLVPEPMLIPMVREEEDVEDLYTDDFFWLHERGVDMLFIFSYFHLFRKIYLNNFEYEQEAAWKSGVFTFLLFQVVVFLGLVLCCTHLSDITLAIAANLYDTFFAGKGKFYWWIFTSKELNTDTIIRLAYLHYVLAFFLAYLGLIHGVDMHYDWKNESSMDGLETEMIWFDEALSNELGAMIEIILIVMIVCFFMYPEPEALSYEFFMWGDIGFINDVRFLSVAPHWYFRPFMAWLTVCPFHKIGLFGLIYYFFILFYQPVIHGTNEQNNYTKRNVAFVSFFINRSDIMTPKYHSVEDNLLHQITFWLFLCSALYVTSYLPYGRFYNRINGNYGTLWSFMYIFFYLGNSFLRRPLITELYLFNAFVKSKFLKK

stoichiometry N [1]: 2
Compound: complex III monomer (cytochrome bc1) of Tetrahymena thermophila

Compound: Nc1ncnc2c1ncn2[C@@H]1O[C@H](COP(=O)(O)OP(=O)(O)O)[C@@H](O)[C@H]1O [ADP]
cryo-EM structure [2]: subunits NDUTT1 with UDP and NDUTT3 with ADP

Compound: Cc1cc2nc3c(=O)[nH]c(=O)nc-3n(C[C@H](O)[C@H](O)[C@H](O)COP(=O)(O)OP(=O)(O)OC[C@H]3O[C@@H](n4cnc5c(N)ncnc54)[C@H](O)[C@@H]3O)c2cc1C [flavin adenine dinucleotide]
cryo-EM structure [3]: SDHA and SDHB forms a conserved head region, containing both the covalently bound FAD

Compound: NC(=O)C1=CN([C@@H]2O[C@H](COP(=O)(O)OP(=O)(O)OC[C@H]3O[C@@H](n4cnc5c(N)ncnc54)[C@H](OP(=O)(O)O)[C@@H]3O)[C@@H](O)[C@H]2O)C=CC1 [NADPH]
cryo-EM structure [4]: NDUFA9 contains a bound NADPH molecule close to the CI Q-tunnel

stoichiometry N [5]: 2
Compound: complex IV monomer (cytochrome c oxidase) of Tetrahymena thermophila (from UniProt Q950Y7 1-453; Q950Y6 1-594)

Compound: COC1=C(OC)C(=O)C(C/C=C(\C)CC/C=C(\C)CC/C=C(\C)CC/C=C(\C)CC/C=C(\C)CC/C=C(\C)CC/C=C(\C)CCC=C(C)C)=C(C)C1=O [UQ, ubiquinone]
cryo-EM structure [6]: density for a bound (semi)-UQ was observed in the Qi site
